Data on 31 molecules can be found in patent US10323036B2 (Nimbus Lakshmi, Inc., priority 2016, dated 2019).

For orientation: Kd means the equilibrium constant for the complex coming apart.

Structures are written as SMILES.

The target of this experiment is human TYK2 (JH2domain-pseudokinase) (Homo sapiens (Human), UniProt P29597). The experiment can be described thus: TYK2 JH2 Domain Binding Assay (KINOMEscan). The settings on record: Table 4, JH2 binding assay; read-out: JH2 Kd.
Chain of human TYK2 (JH2domain-pseudokinase) (P29597 556-888): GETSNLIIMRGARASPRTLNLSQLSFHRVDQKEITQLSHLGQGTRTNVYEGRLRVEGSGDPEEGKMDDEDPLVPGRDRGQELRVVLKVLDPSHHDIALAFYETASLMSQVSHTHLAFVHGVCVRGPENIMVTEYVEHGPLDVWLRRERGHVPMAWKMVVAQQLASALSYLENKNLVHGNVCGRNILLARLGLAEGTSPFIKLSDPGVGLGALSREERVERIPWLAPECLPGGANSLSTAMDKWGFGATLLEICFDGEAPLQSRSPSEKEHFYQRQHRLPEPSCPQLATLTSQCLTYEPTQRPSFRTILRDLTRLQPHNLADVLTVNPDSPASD

Regarding `COc1c(Nc2cc(Nc3cc(C)nc(C)n3)nc3[nH]n(C)c(=O)c23)cccc1-c1ccn(C)n1` [Compound I-123, 6-((2,6-dimethylpyrimidin-4-yl)amino)-4-((2-methoxy-3-(1-methyl-1H-pyrazol-3-yl)phenyl)amino)-2-methyl-1,2-dihydro-3H-pyrazolo[3,4-b]pyridin-3-one], the Kd is 0.1 to 0.5 nM. With `COc1c(Nc2cc(Nc3ccc(N4CCCCC4)cn3)nc3[nH]n(C)c(=O)c23)cccc1-c1ccn(C)n1` [Compound I-124, 4-((2-methoxy-3-(1-methyl-1H-pyrazol-3-yl)phenyl)amino)-2-methyl-6-((5-(piperidin-1-yl)pyridin-2-yl)amino)-1,2-dihydro-3H-pyrazolo[3,4-b]pyridin-3-one], the Kd was in the range of 1 to 10 nM. To `Cn1[nH]c2nc(NC(=O)C3CC3)cc(Nc3ccccc3P(C)(C)=O)c2c1=O` [Compound I-125, N-(4-((2-(dimethylphosphoryl)phenyl)amino)-2-methyl-3-oxo-2,3-dihydro-1H-pyrazolo[3,4-b]pyridin-6-yl)cyclopropanecarboxamide] belongs above 10 nM; to `COCc1ccnc(Nc2cc(Nc3cccc(C(N)=O)c3OC)c3c(=O)n(C)[nH]c3n2)c1` [Compound I-126, 2-methoxy-3-((6-((4-(methoxymethyl)pyridin-2-yl)amino)-2-methyl-3-oxo-2,3-dihydro-1H-pyrazolo[3,4-b]pyridin-4-yl)amino)benzamide], above 10 nM.

For `COc1c(Nc2cc(NC(=O)C3CC3)nc3[nH]n(C)c(=O)c23)ccc(F)c1F` [Compound I-127, N-(4-((3,4-difluoro-2-methoxyphenyl)amino)-2-methyl-3-oxo-2,3-dihydro-1H-pyrazolo[3,4-b]pyridin-6-yl)cyclopropanecarboxamide], the Kd was above 10 nM. To `COc1c(Cl)cccc1Nc1cc(Nc2ccc(C(=O)N3CCCC3)c(C(F)(F)F)n2)nc2[nH]n(C)c(=O)c12` [Compound I-128, 4-((3-chloro-2-methoxyphenyl)amino)-2-methyl-6-((5-(pyrrolidine-1-carbonyl)-6-(trifluoromethyl)pyridin-2-yl)amino)-1,2-dihydro-3H-pyrazolo[3,4-b]pyridin-3-one] belongs 0.1 to 0.5 nM; to `CN(c1ccccc1Nc1cc(NC(=O)C2CC2)nc2[nH]n(C)c(=O)c12)S(C)(=O)=O` [Compound I-129, N-(2-methyl-4-((2-(N-methylmethylsulfonamido)phenyl)amino)-3-oxo-2,3-dihydro-1H-pyrazolo[3,4-b]pyridin-6-yl)cyclopropanecarboxamide], 0.1 to 0.5 nM; to `COc1c(Cl)cccc1Nc1cc(Nc2ccc(C(=O)N3CCOCC3)c(C(F)(F)F)n2)nc2[nH]n(C)c(=O)c12` [Compound I-130, 4-((3-chloro-2-methoxyphenyl)amino)-2-methyl-6-((5-(morpholine-4-carbonyl)-6-(trifluoromethyl)pyridin-2-yl)amino)-1,2-dihydro-3H-pyrazolo[3,4-b]pyridin-3-one], 0.1 to 0.5 nM.

On to `COc1c(Nc2cc(NC(=O)C3CC3)nc3[nH]n(C)c(=O)c23)cccc1-c1noc(C)n1` [Compound I-131], for which the Kd was in the range of 0.1 to 0.5 nM. For the molecule `COc1c(Cl)cccc1Nc1cc(Nc2ccc(C)c(C#N)n2)nc2[nH]n(C)c(=O)c12` [Compound I-132, 6-((4-((3-chloro-2-methoxyphenyl)amino)-2-methyl-3-oxo-2,3-dihydro-1H-pyrazolo[3,4-b]pyridin-6-yl)amino)-3-methylpicolinonitrile], the Kd was 0.1 to 0.5 nM. For the molecule `COc1c(Nc2cc(Nc3cc(C)c(F)cn3)nc3[nH]n(C)c(=O)c23)cccc1-c1cnc[nH]1` [Compound I-133], the Kd lay within 0.1 to 0.5 nM. Next, `COc1c(Cl)cccc1Nc1cc(Nc2ccc(N3CCCC3=O)c(C#N)n2)nc2[nH]n(C)c(=O)c12` [Compound I-134, 6-((4-((3-chloro-2-methoxyphenyl)amino)-2-methyl-3-oxo-2,3-dihydro-1H-pyrazolo[3,4-]pyridin-6-yl)amino)-3-(2-oxopyrrolidin-1-yl)picolinonitrile]: 0.1 to 0.5 nM.

For `COc1c(Cl)cccc1Nc1cc(Nc2cnc(C)c(C#N)n2)nc2[nH]n(C)c(=O)c12` [Compound I-135, 6-((4-((3-chloro-2-methoxyphenyl)amino)-2-methyl-3-oxo-2,3-dihydro-1H-pyrazolo[3,4-b]pyridin-6-yl)amino)-3-methylpyrazine-2-carbonitrile], the Kd lay in the range of 1 to 10 nM. In the case of `COc1c(Cl)cccc1Nc1cc(Nc2ccn(C)n2)nc2[nH]n(C)c(=O)c12` [Compound I-136, 4-((3-chloro-2-methoxyphenyl)amino)-2-methyl-6-((1-methyl-1H-pyrazol 3-yl)amino)-1,2-dihydro-3H-pyrazolo[3,4-b]pyridin-3-one], the Kd was in the range of 1 to 10 nM. In the case of `Cn1ccc(Nc2cc(Nc3ccccc3S(C)(=O)=O)c3c(=O)n(C)[nH]c3n2)n1` [Compound I-137, 2-methyl-6-((1-methyl-1H-pyrazol-3-yl)amino)-4-((2-(methylsulfonyl)phenyl)amino)-1,2-dihydro-3H-pyrazolo[3,4-b]pyridin-3-one], the Kd is 0.5 to 1 nM. For `Cc1ccnc(Nc2cc(Nc3ccccc3S(C)(=O)=O)c3c(=O)n(C)[nH]c3n2)c1` [Compound I-138, 2-methyl-6-((4-methylpyridin-2-yl)amino)-4-((2-(methylsulfonyl)phenyl)amino)-1,2-dihydro-3H-pyrazolo[3,4-b]pyridin-3-one], the Kd lay in the range of 0.5 to 1 nM. As to `Cn1[nH]c2nc(Nc3ccc(C#N)cn3)cc(Nc3ccccc3S(C)(=O)=O)c2c1=O` [Compound I-139, 6-((2-methyl-4-((2-(methylsulfonyl)phenyl)amino)-3-oxo-2,3-dihydro-1H-pyrazolo[3,4-b]pyridin-6-yl)amino)nicotinonitrile], the Kd was 0.1 to 0.5 nM.

Take `COC1CN(c2cccc(Nc3cc(Nc4ccccc4S(C)(=O)=O)c4c(=O)n(C)[nH]c4n3)n2)C1` [Compound I-140, 6-((6-(3-methoxyazetidin-1-yl)pyridin-2-yl)amino)-2-methyl-4-((2-(methylsulfonyl)phenyl)amino)-1,2-dihydro-3H-pyrazolo[3,4-b]pyridin-3-one]: the equilibrium dissociation constant (Kd) fell in the range of 1 to 10 nM. To `COc1c(Nc2cc(NC(=O)C3CC3)nc3[nH]n(C)c(=O)c23)ccc(C(=O)N2CCCC2)c1F` [Compound I-141] belongs 1 to 10 nM; to `Cn1[nH]c2nc(Nc3ccccn3)cc(Nc3ccccc3S(C)(=O)=O)c2c1=O` [Compound I-142, 2-methyl-4-((2-(methylsulfonyl)phenyl)amino)-6-(pyridin-2-ylamino)-1,2-dihydro-3H-pyrazolo[3,4-b]pyridin-3-one], 0.1 to 0.5 nM. Next, `Cn1[nH]c2nc(Nc3ccc(C4CC4)cn3)cc(Nc3ccccc3S(C)(=O)=O)c2c1=O` [Compound I-143, 6-((5-cyclopropylpyridin-2-yl)amino)-2-methyl-4-((2-(methylsulfonyl)phenyl)amino)-1,2-dihydro-3H-pyrazolo[3,4-b]pyridin-3-one]: 0.1 to 0.5 nM; `COc1c(Cl)cccc1Nc1cc(Nc2ccc(N3CCC3)c(C#N)n2)nc2[nH]n(C)c(=O)c12` [Compound I-144, 3-(azetidin-1-yl)-6-((4-((3-chloro-2-methoxyphenyl)amino)-2-methyl-3-oxo-2,3-dihydro-1H-pyrazolo[3,4-b]pyridin-6-yl)amino)picolinonitrile]: 0.1 to 0.5 nM; `COc1c(Cl)cccc1Nc1cc(Nc2ccc(N3CC[C@H](OC)C3)c(C#N)n2)nc2[nH]n(C)c(=O)c12` [Compound I-145, (S)-6-((4-((3-chloro-2-methoxyphenyl)amino)-2-methyl-3-oxo-2,3-dihydro-1H-pyrazolo[3,4-b]pyridin-6-yl)amino)-3-(3-methoxypyrrolidin-1-yl)picolinonitrile]: 0.1 to 0.5 nM. To `COc1c(Cl)cccc1Nc1cc(Nc2cnc(C3CC3)c(C#N)n2)nc2[nH]n(C)c(=O)c12` [Compound I-146, 6-((4-((3-chloro-2-methoxyphenyl)amino)-2-methyl-3-oxo-2,3-dihydro-1H-pyrazolo[3,4-b]pyridin-6-yl)amino)-3-cyclopropylpyrazine-2-carbonitrile] belongs above 10 nM; to `CCc1ncc(Nc2cc(Nc3cccc(Cl)c3OC)c3c(=O)n(C)[nH]c3n2)nc1C#N` [Compound I-147, 6-((4-((3-chloro-2-methoxyphenyl)amino)-2-methyl-3-oxo-2,3-dihydro-1H-pyrazolo[3,4-b]pyridin-6-yl)amino)-3-ethylpyrazine-2-carbonitrile], above 10 nM. Regarding `CCc1ncc(Nc2cc(Nc3cccc(F)c3OC)c3c(=O)n(C)[nH]c3n2)nc1C#N` [Compound I-148, 3-ethyl-6-((4-((3-fluoro-2-methoxyphenyl)amino)-2-methyl-3-oxo-2,3-dihydro-1H-pyrazolo[3,4-b]pyridin-6-yl)amino)pyrazine-2-carbonitrile], the Kd was above 10 nM. To `COc1c(Nc2cc(NC(=O)C3CC3)nc3[nH]n(C)c(=O)c23)cccc1-n1nc(C)c(C)n1` [Compound I-149] belongs above 10 nM; to `Cn1[nH]c2nc(NC(=O)C3CC3)cc(Nc3ccc(C(=O)N4CCCC4)cc3OC(F)F)c2c1=O` [Compound I-151], above 10 nM.

Consider `CCc1ccc(Nc2cc(NC(=O)C3CC3)nc3[nH]n(C)c(=O)c23)c(S(C)(=O)=O)c1` [Compound I-152, N-(4-((4-ethyl-2-(methylsulfonyl)phenyl)amino)-2-methyl-3-oxo-2,3-dihydro-1H-pyrazolo[3,4-b]pyridin-6-yl)cyclopropanecarboxamide], for which the Kd was 0.5 to 1 nM.

Consider `COc1c(Cl)cccc1Nc1cc(Nc2cnc(C(C)(C)OC)c(C#N)n2)nc2[nH]n(C)c(=O)c12` [Compound I-155, 6-((4-((3-chloro-2-methoxyphenyl)amino)-2-methyl-3-oxo-2,3-dihydro-1H-pyrazolo[3,4-b]pyridin-6-yl)amino)-3-(2-methoxypropan-2-yl)pyrazine-2-carbonitrile], for which the Kd fell in the range of 0.5 to 1 nM. To `COc1c(Cl)cccc1Nc1cc(Nc2ccc(C(F)F)c(C#N)n2)nc2[nH]n(C)c(=O)c12` [Compound I-156, 6-((4-((3-chloro-2-methoxyphenyl)amino)-2-methyl-3-oxo-2,3-dihydro-1H-pyrazolo[3,4-b]pyridin-6-yl)amino)-3-(difluoromethyl)picolinonitrile] belongs above 10 nM.
